Test results reported in patent publication US8927700B2, “Catalytic domains from lysyl oxidase and LOXL2” (Gilead Biologics, Inc., priority 2009, dated 2015).

Biological target: T1, catalytic domain of human LOXL2 (Homo sapiens, UniProt Q9Y4K0)
T1 construct: made in house; host or cells: 293F cells (HEK293 subclone), transient transfection; purified from culture supernatant on Ni-Sepharose
Assay: Amplex Red coupled peroxide assay of lysyl oxidase enzymatic activity (deamination of 1,5-diaminopentane)
Format: biochemical
Conditions: 1,5-diaminopentane substrate, 37° C., FIG. 5
Method: A polypeptide containing the catalytic domain of human LOXL2 was produced as described in Example 12 above. Enzymatic activity was assessed using a biochemical assay that couples the production of peroxide (liberated by LOXL2 after deamination of 1,5-diaminopentane) to the HRP-catalyzed conversion of Amplex® red to a fluorescent product (resorufin). Palamakumbura et al. (2002) Anal. Biochem. 300:245-251. Reaction plates were obtained from Corning. Amplex® Red reagent was from Invitrogen (Carlsbad, Calif.). Horseradish peroxidase (HRP), 1,5-diaminopentane, and antifoam were from Sigma (St. Louis, Mo.). All other reagents were of the highest quality available.
Enzyme mixture was assembled by adding 10 uL of pooled peak fractions (see Example 12) to 40 uL assay solution (62.5 mM sodium borate pH 8.0, 5 units/mL HRP, 10 ppm antifoam). Substrate solution contained 50 mM sodium borate, 100 uM Amplex® red reagent, 20 mM 1,5-diaminopentane, 10 ppm antifoam. The reaction was started by mixing 50 ul of enzyme mixture with 50 ul of substrate solution. […] Reaction mixtures were incubated, at 37° C., in a Molecular Devices M5 plate reader configured to measure fluorescence (ex=544 nm, em=590 nm) in kinetics mode for 1 hour. Data were recorded as the slope of the fluorescence response to time.

T1 sequence (Q9Y4K0 with tags, fused parts or gaps): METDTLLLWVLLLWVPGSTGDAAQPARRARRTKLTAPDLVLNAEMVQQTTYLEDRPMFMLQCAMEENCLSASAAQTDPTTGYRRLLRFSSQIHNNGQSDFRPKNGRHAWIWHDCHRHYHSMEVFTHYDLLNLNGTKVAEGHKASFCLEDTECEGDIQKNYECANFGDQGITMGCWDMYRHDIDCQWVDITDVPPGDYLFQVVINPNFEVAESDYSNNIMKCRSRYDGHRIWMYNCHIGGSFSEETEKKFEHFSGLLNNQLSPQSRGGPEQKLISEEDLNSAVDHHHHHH

| Compound | inhibition of the enzymatic activity of the human LOXL2-derived polypeptide (time course of resorufin production, RFU) (2 mM βAPN in reaction, kinetics mode for 1 hour) | enzymatic activity (time course of resorufin production, relative fluorescent units) (pooled peak fractions of purified polypeptide, 1 hour) |
| --- | --- | --- |
| N#CCCN [βAPN, beta-aminoproprionitrile] | inhibited | – |
| human LOXL2-derived polypeptide: polypeptide containing the catalytic domain of human LOXL2 with myc epitope tag and His6 purification tag, produced in 293F cells | – | measurable enzymatic activity |
